Test results: article PMC5454942, “The Potential of Triterpenoids from Loquat Leaves (Eriobotrya japonica) for Prevention and Treatment of Skin Disorder” (International Journal of Molecular Sciences, 2017)
Values after ≈ are worked out from the molar mass of the structure shown. Values joined by “and” are separate entries in the source; they are usually repeats but may differ in a detail not shown here. Equal entries are not always repeated.

Tests used:
B16 melanoma cells [1] = test: Anti-melanogenesis assay (melanin content); type: cell-based, mouse; details: for Inhibition rate (100% − melanin synthesis): B16 cells; for IC50 melanin / IC50: B16 melanoma cells; for IC50: read-out: IC50 (melanin synthesis)
Protocol: (§1) This assay was performed as described by Arung et al.. The mouse melanoma cell line B16 was obtained from the Riken Bioresource Center Cell Bank (Tsukuba, Japan). The B16 melanoma cells were maintained in Eagle’s Minimal Essential Medium (EMEM, Nissui Chemical, Tokyo) supplemented with 10% (v/v) fetal bovine serum (FBS; Gibco, Carlsbad, CA, USA) and 0.09 mg/mL theophylline (Sigma-Aldrich, St. Louis, MO, USA). […] After 24 h, test samples were dissolved in DMSO (<0.2% per well) and sample solution were added to each well. Arbutin (Tokyo Kasei Kogyo, Tokyo) was used as a positive control. The cells were incubated for an additional 48 h, and then the medium was replaced with fresh medium containing each sample again. After 24 h, the melanin content and the cell viability were measured using a microplate reader (BioTek-ELX800, BioTek Instruments, Winooski, VT, USA) at 405 nm and 570 nm, respectively. Cell viability was measured using the MTT (3-(4,5-dimethylthiazol-2-yl)-2,5-diphenyltetrazolium bromide) method.

B16 melanoma cells [2] = test: Cell viability of B16 melanoma cells (MTT); details: for Inhibition rate (100% − cell viability): B16 cells; for CC50 cell viability / CC50: B16 melanoma cells, MTT; for CC50: read-out: CC50 (cell viability)
Protocol: as §1

Propionibacterium acnes = test: Anti-bacterial assay (growth inhibition, MIC/MBC by broth microdilution); type: cell-based; details: for Inhibition Rate (P. acnes growth): concentration 100 μg/mL; for activity against P. acnes (in words): at their maximum solubility
Protocol: The antibacterial assay was based mostly on the methods described by Tanaka et al. with slight modification. Propionibacterium acne (NBRC 107605) was used for the antibacterial assay. A single colony of the test strain was taken and 5 mL of Gifu anaerobic medium (GAM) broth (Nissui, Tokyo) was added to it. This culture was incubated at 37 °C for 30 h. It was then added to the bacterial suspension to prepare a bacterial concentration at 10^5 CFU/mL. The bacterial solution was used for the subsequent antibacterial assay. Each compound was dissolved in DMSO, and benzalkonium chloride (Wako) was used as a positive control. The plate was incubated at 37 °C for 30 h. Finally, bacterial growth was measured by a microplate reader at 630 nm. The MIC and MBC were evaluated by the standard broth microdilution method.

RBL-2H3 cells [3] = test: β-hexosaminidase release from IgE-stimulated RBL-2H3 mast cells; type: cell-based, rat; details: 25 μg/mL
Protocol: (§2) The anti-allergy assay was based mostly on the methods described by Zhu et al. and Yun et al. with slight modification. Rat basophilic leukemia (RBL-2H3) cells were obtained from the Riken Bio-resource Center Cell Bank (Tsukuba, Japan). RBL-2H3 cells were incubated in EMEM medium containing 10% FBS and 1% antibiotics–antimycotics at 37 °C. The cells were seeded on a 96-well plate (2 × 10^5 cells/well). After 24 h of incubation, the medium was supplemented with 0.5 μg/mL anti-DNP (dinitrophenol) mouse immunoglobulin E (IgE) (Sigma-Aldrich). After an additional 24 h of incubation, the medium was replaced with 100 μL of Tyrode buffer. The sample dissolved in DMSO (<0.5% per well) was added, and the cell plate was incubated again for 30 min, then replaced with 100 μL of tyrode buffer containing 50 μg/mL DNP-bovine serum albumin (BSA) (Invitrogen, Carlsbad, CA, USA). After 1 h of incubation, 50 μL of the supernatant was collected from each well and mixed with 50 μL of substrate solution (p-nitrophenyl-N-acetyl-β-glucosaminide, 2 mM; Sigma-Aldrich) in a new 96-well plate. The mixture was incubated at room temperature on a shaker for 3 h. Finally, 100 μL of stop solution was added, and the absorbance was read at 405 nm. A parallel MTT experiment was performed to measure the cell viability. The MTT experiment was done exactly as described.

RBL-2H3 cells [4] = test: Cell viability of RBL-2H3 cells (parallel MTT); type: cell-based, rat; details: 25 μg/ml, RBL-2H3 cells
Protocol: as §2

NHDF cells = test: Skin type I collagen synthesis promoting assay (ELISA, with MTT); type: cell-based, human; details: fold of control
Protocol: The assay for measuring the promotion of skin collagen synthesis was described by Kishikawa et al.. Adult NHDF cells (Lonza, Tokyo) were routinely maintained in 10% FBS and 1% antibiotic-antimycotic (Invitrogen) in Dulbecco’s modified Eagle’s medium (DMEM, Wako). After growing to confluence, cells at a density of 5 × 10^3 cells/well were seeded on 96-well plates for 24 h before the treatment. The medium was replaced with a mixture of 1 μL of sample solution (DMSO < 0.5% per well) and 99 μL of DMEM supplemented with 0.5% FBS. After 72 h of cultivation, the amount of collagen in the medium was measured using a human type I collagen enzyme-linked immunosorbent assay (ELISA) kit (ACEL, Kanagawa, Japan). The amount of collagen production was calculated using a standard curve prepared by measurement by the same ELISA. The cells remaining in the 96-well plate were subjected to an MTT assay. Ascorbic acid (100 μM, Wako) was used as a positive control.

| SMILES | Inhibition rate (100% − melanin synthesis) (B16 melanoma cells [1]; 1 μg/ml) [%] | Inhibition rate (100% − melanin synthesis) (B16 melanoma cells [1]; 2.5 μg/ml) [%] | Inhibition rate (100% − melanin synthesis) (B16 melanoma cells [1]; 5 μg/ml) [%] | Inhibition rate (100% − melanin synthesis) (B16 melanoma cells [1]; 10 μg/ml) [%] | IC50 melanin (B16 melanoma cells [1]) [µg/mL] | IC50 (B16 melanoma cells [1]) [µM] | Inhibition rate (100% − cell viability) (B16 melanoma cells [2]; 1 μg/ml) [%] | Inhibition rate (100% − cell viability) (B16 melanoma cells [2]; 2.5 μg/ml) [%] | Inhibition rate (100% − cell viability) (B16 melanoma cells [2]; 5 μg/ml) [%] | Inhibition rate (100% − cell viability) (B16 melanoma cells [2]; 10 μg/ml) [%] | CC50 cell viability (B16 melanoma cells [2]) [µg/mL] | CC50 (B16 melanoma cells [2]) [µM] | Inhibition Rate (P. acnes growth) (Propionibacterium acnes) | Inhibition Rate (β-hexosaminidase release) (RBL-2H3 cells [3]) [%] | Cell viability (RBL-2H3 cells [4]) [%] | CP/CV value (collagen production %/cell viability %) (NHDF cells; 5 μg/mL) | activity against P. acnes (in words) (Propionibacterium acnes) | CP/CV value (collagen production %/cell viability %) (NHDF cells; 10 μg/mL) | CP/CV value (collagen production %/cell viability %) (NHDF cells; 1 μg/mL) | further results |
| --- | --- | --- | --- | --- | --- | --- | --- | --- | --- | --- | --- | --- | --- | --- | --- | --- | --- | --- | --- | --- |
| COC(=O)[C@]12CCC(C)(C)C[C@@H]1C1=CC[C@@H]3[C@@]4(C)C[C@@H](O)[C@H](O)C(C)(C)C4CC[C@@]3(C)[C@]1(C)CC2 (stereo partly drawn) [Compound 5, Methyl maslinate] | 0.0 ± 4.4 | 1.6 ± 0.6 | 44.8 ± 4.3 | 68.2 ± 0.6 | 6.2 (≈ 12.7 µM) | 12.8 | 4.7 ± 8.1 | 1.3 ± 5.2 | 12.1 ± 8.6 | 75.9 ± 0.5 | 8.4 (≈ 17.3 µM) | 17.5 | – (no inhibition) | 8.5 ± 9.5 | 105.8 ± 1.1 | 1.2 | – | – | – | – |
| COC(=O)[C@]12CC[C@@H](C)[C@H](C)[C@H]1C1=CC[C@@H]3[C@@]4(C)C[C@@H](O)[C@H](O)C(C)(C)[C@@H]4CC[C@@]3(C)[C@]1(C)CC2 [Compound 6, methyl corosolate] | 0.0 ± 1.9 | 2.8 ± 4.5 | 32.7 ± 1.5 | 63.5 ± 2.7 | 7.8 (≈ 16 µM) | 16.1 | 4.5 ± 13.7 | 10.5 ± 10.9 | 15.4 ± 5.1 | 59.4 ± 7.0 | 9.1 (≈ 18.7 µM) | 18.7 | 77.9 ± 1.6% | 2.4 ± 14.1 | 97.6 ± 14.1 | 2.4 | active | 3.4 and 3.6 | – | – |
| C[C@@H]1CC[C@]2(C(=O)O)CC[C@]3(C)C(=CC[C@@H]4[C@@]5(C)C[C@@H](O)[C@H](O)C(C)(C)[C@@H]5CC[C@]43C)[C@@H]2[C@]1(C)O [Compound 11, tormentic acid] | 0.0± 6.1 | 11.3 ± 3.4 | 34.8 ± 4.5 | 51.3 ± 0.9 | 9.0 (≈ 18.4 µM) | 18.5 | 12.0 ± 12.8 | 13.7 ± 10.7 | 8.7 ± 12.1 | 52.4 ± 8.6 | 11.4 (≈ 23.3 µM) | 23.3 | 102.8 ± 2.1% | – | 62.6 ± 1.1 | 1.3 | active | – | – | Inhibition rate (100% − melanin synthesis) (B16 melanoma cells [1]; 20 μg/ml): 73.4 ± 8.0%; Inhibition rate (100% − cell viability) (B16 melanoma cells [2]; 20 μg/ml): 85.8 ± 1.6%; MBC (Propionibacterium acnes; P. acnes, broth microdilution): 200 µg/mL (≈ 409 µM); MIC (Propionibacterium acnes; P. acnes, broth microdilution): 100 µg/mL (≈ 205 µM) |
| C[C@H]1[C@H](C)CC[C@]2(C(=O)O)CC[C@]3(C)C(=CC[C@@H]4[C@@]5(C)CCC(=O)C(C)(C)[C@@H]5CC[C@]43C)[C@H]12 [Compound 13, 3-oxours-12-en-28-oic acid] | 41.0 ± 2.1 | 39.7 ± 0.6 | 45.5 ± 2.7 | 52.9 ± 0.6 | 8.1 (≈ 17.8 µM) | 18 | 39.1 ± 2.6 | 42.7 ± 2.1 | 51.5 ± 3.7 | 80.3 ± 3.0 | 4.0 (≈ 8.8 µM) | 8.9 | – (no inhibition) | – | 85.6 ± 4.2 | 1.2 | – | 1.4 | 1.2 | Inhibition rate (100% − melanin synthesis) (B16 melanoma cells [1]; 0.5 μg/ml): 37.4 ± 1.1% |
| C[C@@H]1CC[C@]2(C(=O)O)CC[C@]3(C)C(=CC[C@@H]4[C@@]5(C)CCC(=O)C(C)(C)[C@@H]5[C@H](O)C[C@]43C)[C@@H]2[C@]1(C)O [Compound 14, 6β,19-dihydroxyurs-12-en-3-oxo-28-oic acid] | 6.9 ± 1.8 | 15.8 ± 1.8 | 39.5 ± 3.1 | 67.3 ± 1.4 | 7.2 (≈ 14.8 µM) | 14.8 | 2.5 ± 8.3 | 1.2 ± 9.7 | 44.1 ± 0.4 | 69.1 ± 10.0 | 5.3 (≈ 10.9 µM) | 10.9 | 87.6 ± 7.4% | – | 66.8 ±11.1 | 1.4 | active | 1.1 | 1.2 | – |
